US12257253B2, “Triamterene or nolatrexed for use in the treatment of phenylketonuria” (SOM INNOVATION BIOTECH, S.A., priority 2019, dated 2025)
Where a name gives a salt, the structure may show the parent alone.

What was measured:
Assay type in all cases: cell-based
Arg261Gln (R261Q) PAH [1] = biological target: T1, Arg261Gln (R261Q) PAH (Homo sapiens (Human), UniProt P00439, R261Q); test: Phenylalanine hydroxylase enzyme activity assay in transfected COS7 cells; conditions: compound 10 μM (sepiapterin 5 μM), 48 h
T1 sequence (P00439 whole entry R261Q): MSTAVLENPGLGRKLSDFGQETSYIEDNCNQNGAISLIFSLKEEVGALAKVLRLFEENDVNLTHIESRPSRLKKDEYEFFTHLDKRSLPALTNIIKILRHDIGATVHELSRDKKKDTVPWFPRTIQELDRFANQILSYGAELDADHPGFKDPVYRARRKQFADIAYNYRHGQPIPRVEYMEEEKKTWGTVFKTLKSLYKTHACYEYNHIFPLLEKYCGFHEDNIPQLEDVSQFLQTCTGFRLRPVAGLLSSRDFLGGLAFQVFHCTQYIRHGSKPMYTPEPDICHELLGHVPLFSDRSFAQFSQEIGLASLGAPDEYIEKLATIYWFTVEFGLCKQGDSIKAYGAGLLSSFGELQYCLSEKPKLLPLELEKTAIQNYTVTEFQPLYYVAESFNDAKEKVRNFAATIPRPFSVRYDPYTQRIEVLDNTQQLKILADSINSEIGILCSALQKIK
Protocol: (§1) 2. Phenylalanine Hydroxylase Enzyme Activity Assay
(§2) This assay was completed in cell culture to analyze the enzyme activity in the presence of compounds. In brief, wild-type or Arg261Gln PAH constructs were transiently expressed in COS7-cells in a 96 well format reflecting the PAH genotype (COS7 cell line has no endogenous PAH). Cells were treated with the compounds at a final concentration of 10 μM and the enzyme activity of PAH was analyzed 48 h after transfection. The effect of the compounds on the residual enzyme activity was determined in comparison to non-treated cells (NCC, only compound solvent final 0.1%). To normalize the cellular background signal non transfected cells (NT control) were treated with compound or solvent equally for 48 h. As a positive control we used sepiapterin, a stable precursor of BH4 (CAS 17094-01-8), stabilized in 100 mM DTT, in a final concentration of 5 μM.
(§3) PAH activities were assayed at 25° C. as previously described (Gersting, S. W., J. Biol. Chem., 2010, 285(40), 30686-30697) with modifications. The standard mixture contained 22.35 mM NaHepes, pH 7.0, […] catalase, 10 μM ferrous ammonium sulphate, and 1 mM L-Phe (L-phenylalanine) final. Assay mixture and cell culture enzyme were pre-incubated for 5 min and the reaction was initiated by the addition of 75 μM BH4 (stabilized in 100 mM dithiothreitol) final, run for 60 min and stopped by acetic acid. The amount of L-tyrosine production was measured and quantified by HPLC, assayed as triplicates.
(§4) The effect of compound on PAH enzyme activity was calculated from triplicates as follows: first the background of the NT cells were subtracted from the transfected cells (treated or NCC) and then the percentage of treated (compound) versus NCC was determined. Enzyme activity greater than 100% represents an increase in the enzyme activity with respect to NCC.

wild-type PAH [2] = biological target: T2, wild-type PAH (Homo sapiens (Human), UniProt P00439); test: as above; conditions: compound 10 μM (sepiapterin 5 μM), 48 h
T2 sequence (P00439 whole entry): as the sequence (P00439 whole entry R261Q) above, with Q261R counted along it
Protocol: as §1, §2, §3, §4

Arg261Gln (R261Q) PAH [3] = biological target: T1, Arg261Gln (R261Q) PAH; test: Phenylalanine hydroxylase residual protein amount (dot blot, COS-7 lysates); conditions: COS-7, 48 h, COS-7 cells, compound 10 μM (sepiapterin 5 μM), read-out: PAH protein level (immune blot signal) R261Q PAH Mean
Protocol: (§5) 3. Phenylalanine Hydroxylase Residual Protein Amount
(§6) The analysis of the residual PAH protein amount was based on the method described in Gersting S. W. et al., Human Molecular Genetics, 2010, 19(10), 2039-2049 with modifications.
(§7) Detection of the residual PAH protein amount was performed as a dot blot using the lysates obtained from the cell culture where transiently transfected COS-7 cells (with wild-type PAH or PAH variant) were exposed for 48 h to compounds. The experiment was carried out from the same samples as used for measuring enzyme activities.
(§8) 2 μl of the lysate were dropped onto the nitrocellulose membrane. The membrane was allowed to air dry at room temperature for 30 min followed by 40 min blocking in 5% milk in TBS-Tween (room temperature). The membrane was incubated with the mouse monoclonal primary antibody specific for PAH (Millipore, Cat. No. MAB5278, 1:1000 dilution in 5% milk in TBS-Tween) for overnight at 4° C. Next, the membrane was washed (3×10 min in TBS-Tween) and incubated with the secondary HRP-conjugated antibody (anti-mouse antibody; Santa Cruz Biotechnology, Inc., Cat. No. sc-2005; 1:1000 dilution in 5% milk in TBS-Tween) followed by thorough washing in TBS-Tween (3×10 min) and distilled water (1×10 min). Blots were visualized with Pierce™ ECL substrate (ThermoFisher Scientific, Cat No. 32106) and chemiluminescence was monitored with a DIANA III Imaging system or ChemiDoc™ MP Imaging System (BioRad). To analyze the compound effect on the PAH protein amount densitometry analysis was performed using ImageJ Software.
(§9) The effect of compound on PAH protein amount was calculated from triplicates. As for determination of the enzyme activity the background of the not transfected cells (NT) was subtracted from the transfected cells (NCC or compound treated). In the next step delta of the NCC versus compound treated cells was calculated. Residual protein amount greater than 100% represents an increase in the stability of the enzyme with respect to NCC.

wild-type PAH [4] = biological target: T2, wild-type PAH; test: as above; conditions: COS-7, 48 h, COS-7 cells, compound 10 μM (sepiapterin 5 μM), read-out: PAH protein level (immune blot signal) WT PAH Mean
Protocol: as §5, §6, §7, §8, §9

CCN1CCCC1CNC(=O)c1cc(S(=O)(=O)CC)ccc1OC (stereo not drawn) [Sultopride HCl, N-[(1-ethyl-2-pyrrolidinyl)methyl]-5-(ethylsulfonyl)-o-anisamide]
PAH enzyme activity (L-Tyrosine formation) R261Q PAH Mean (Arg261Gln (R261Q) PAH [1]): 131.23 % NCC
PAH enzyme activity (L-Tyrosine formation) WT PAH Mean (wild-type PAH [2]): 104.71 % NCC

Cc1ccc2[nH]c(N)nc(=O)c2c1Sc1ccncc1 [Nolatrexed 2HCl, 2-amino-6-methyl-5-(4-pyridylthio)-4(3H)-quinazolinone]
PAH protein level (% of control) at 10 µM (Arg261Gln (R261Q) PAH [3]): 256%
PAH protein level (% of control) at 10 µM (wild-type PAH [4]): 108%
PAH enzyme activity (L-Tyrosine formation) R261Q PAH Mean (Arg261Gln (R261Q) PAH [1]): 531.60 % NCC
PAH enzyme activity (L-Tyrosine formation) WT PAH Mean (wild-type PAH [2]): 284.15 % NCC

C[C@H](O)C(=O)C1=Nc2c([nH]c(N)nc2=O)NC1 [Sepiapterin, S-(−)-2-amino-7,8-dihydro-6-(2-hydroxy-1-oxopropyl)-4(1H)-pteridinone]
PAH protein level (% of control) at 10 µM (wild-type PAH [4]): 106%
PAH enzyme activity (L-Tyrosine formation) R261Q PAH Mean (Arg261Gln (R261Q) PAH [1]): 2089.79 % NCC
PAH enzyme activity (L-Tyrosine formation) WT PAH Mean (wild-type PAH [2]): 297.14 % NCC
